Data on 8 compounds can be found in patent publication US6465007B1, “Transgene expression in polarized cells” (Genzyme Corporation, priority 1998, dated 2002).

The test system of data set [1] is polarized NHBE cells. Nature of the data set: Binding and internalization of cationic lipid:pDNA complexes (TOTO-1 label, trypan blue quenching). To be noted: Table 1; grades Very Effective / Mildly Effective. The procedure:
Cells were incubated with TOTO-1 or Rh-PE labeled complexes at 37° C. for the times noted in the figure legends. Following incubation, cells were washed 7 times with cold PBS and then fixed in 2% paraformadehyde for 20 min at 4° C. The membrane of the insert was removed and mounted using immuno-mount (Shandon, Pittsburgh, Pa.) containing 2 μg/ml DAPI (Molecular Probes). Bound and internalized complexes were observed under a fluorescence microscope (Olympus, AX-70). To observe only internalized complexes, cells were washed 2 times with cold PBS and then the fluorescence of surface bound complexes was quenched by a 10 min incubation with trypan blue (1 mg/ml; Diagnostic Systems, Inc., Gibbstown, N.J.) on ice. Cells were then washed an additional 5 times with cold PBS, fixed and mounted.
Polarized NHBE cells were cultured using a modified procedure based on the methods described by Yamaya et al., American Journal of Physiology, 265:L170-L177 (1993), Jiang et al., Science, 262:424-427 (1993) and Gray et al., American Journal of Respiratory Cell & Molecular Biology, 14:104-112 (1996). Briefly, first passage NHBE cells were plated at a density of 2.5×10^5 cells/cm^2 onto inserts (Millicell-PCF, 0.4 μm pore size, Millipore) coated with human placental collagen (Sigma). The culture medium was the same as that described above for growing NHBE cells as islands. Cultures were maintained under air-liquid interface conditions starting at day 3 following the initial seeding. Cells were considered ready for use when the trans-epithelial resistance was •1000 Ωcm^2.

The subject of the next data set is CF patients. Conditions: cited from earlier work.
For the next data set, the system named is NHBE cells. The data set is described as follows: Cell proliferation assay, [methyl-3H]-thymidine incorporation into DNA. Type of data set: cell-based, human. The protocol:
The proliferation of NHBE cells was assessed by measuring the amount of [methyl-^3H] thymidine incorporation into DNA (Fasbender et al., Gene Therapy, 4:1173-1180, 1997). [Methyl-^3H] thymidine (5 μCi/ml; Amersham, Arlington Heights, Ill.) was added to culture medium on the basal side of polarized NHBE cells which had been pre-treated with either Opti-MEM or Ca^2+-free medium. After 4 h, both groups of cells were washed 3 times with PBS and then lysed in a buffer containing 0.2% SDS, 100 mM Tris (pH=7.0), 5 mM EDTA, 200 mM NaCl, and 0.5 mg/ml proteinase K. The lysate was incubated at 65° C. for 30 min, microcentrifuged for 5 min and the supernatant placed into a fresh tube. An equal volume of isopropanol was added to precipitate the DNA. The precipitated DNA pellet was washed twice with 70% ethanol, dried, and resuspended in a 10 mM Tris-HCl, 0.5 mM EDTA buffer, pH 8.0. The DNA concentration was determined using A260/280 measurements. Tritium counts were measured using a Beckman LS6500 scintillation counter.
(§1) To inhibit NHBE cell proliferation, aphidicolin (0.5 μg/ml; Sigma) was added to culture medium on the basal side of the polarized NHBE cells for 18 h at 37° C. The cells were then transfected as described above except that the concentrations of cationic lipid and pDNA were 80 and 107 μM, respectively. After transfection, aphidicolin was present in the culture medium until the cells were harvested. […] Retinoic acid enhanced the inhibitory effect of aphidicolin on cell proliferation (Chou, R. H. et al., Cell & Tissue Kinetics, 18:387-97, 1985).
(Dividing cells build labelled thymidine or BrdU into new DNA.)

Data set [2] deals with polarized NHBE cells. The data set is described as follows: In vitro transfection with GL-67:pCF1-SEAP, secreted alkaline phosphatase in apical supernatant. It counts as cell-based, human. To be noted: 0.5 μg/ml, 18 h before and after transfection, with or without Ca2+-free medium; FIG. 2A. The protocol:
Prior to transfection, polarized NHBE cells on inserts were incubated in either Opti-MEM, Opti-MEM containing 0.1% EGTA, or in Ca^2+-free media (Gibco) in both sides of the insert for 30 min at 37° C. The cells were then washed 3 times with Opti-MEM, and incubated with unlabeled GL-67:pCF1-SEAP (40:53 μM) for 4 h at 37° C., after which they were washed 3 times with Opti-MEM. One ml of culture medium then was added to the outside of the insert (basal side) and 100 μl added to the inside of the insert (apical side). The supernatant from the apical side was collected on day 2 after transfection, heated at 65° C. for 1 h to denature endogenous alkaline phosphatases (Berger et al., Gene, 1988), and assayed in triplicate for secreted alkaline phosphatase (SEAP) activity using an alkaline phosphatase reagent (Sigma) and human placental alkaline phosphatase (Calbiochem, La Jolla, Calif.) as a standard.
as §1

For a further data set, the system named is mouse trachea. Nature of the data set: Intranasal instillation of Ad2βgal-4, X-gal staining of airways. Type of data set: in vivo. The protocol: Female BALB/c mice 9-12 weeks of age were purchased from Taconic (Germantown, N.Y.). In some groups, mice were instilled intranasally with 25 μl of a solution containing EGTA (pH 7.5), followed by 25 μl of 5% sucrose in PBS containing Adβgal-4 (2×10^8 IU). In other groups, mice were co-instilled with 25 μl of a solution prepared by mixing equal volumes of a 2× (4×10^8 IU/25 μl) Ad2βgal-4 solution in 10% sucrose with 2×EGTA prior to instillation.
Cytochemical localization of Ogal expression in the trachea was observed using 5-bromo-4-chloro-3-indolyl-β-D-galactopyranoside (X-gal; Sigma). In brief, cannulated mouse lungs were fixed for 10 min by infusion of a fixing solution (2% paraformaldehyde and 0.2% glutaraldehyde in PBS). The lungs were then rinsed twice with 50 mM glycine in PBS, filled with X-gal solution, and stained overnight. Staining was stopped by transfering the samples into the fixing solution.
Trachea with staining levels were defined on a scale of 0 to 3, 0 indicating no cells staining for βgal, and a value of 3 indicating a large number of cells positive for the transgene. To evaluate the effect of EGTA concentration on AdV-mediated gene transfer in the trachea, mice were pre-treated with various concentrations of EGTA 0.5 h before AdV instillation. In some animals, AdV and EGTA were co-instilled. To exclude the possibility that any observed enhancement of expression was due to a hyperosmotic effect of the EGTA solution, a 20% mannitol solution (osmolarity similar to 0.4M EGTA) was included as a control in both the pre-treatment and co-instillation models.

The next data set deals with mouse nose. To be noted: cited from earlier work.
The nature of data set [3]: Stabilization of cationic lipid:pDNA complexes by PEG-containing lipid. Type of data set: physicochemical. To be noted: 1.14 mol % relative to total lipid. The protocol: For example, at 1.14 mol % DMPE-PEG5000 (relative to the amount of total lipid), cationic lipid:pDNA complexes could be stabilized at pDNA concentrations exceeding 20 mM. Without PEG-containing lipids, a salt excipient, which is not preferred since an ionic excipient also depresses transfection activity, is required to maintain the lipid:pDNA ratio of the complex during certain methods such aerosolization. For more information regarding use of PEG derivatives the following references are specifically incorporated by reference: Simon J. Eastman et al., Human Gene Therapy, 8, pp. 765-773 (1997); Simon J. Eastman et al. Human Gene Therapy, p. 8, pp. 313-322 (1997).

Where [4] appears, read: 0.5 μg/ml in culture medium containing 50 nM retinoic acid.

As to `CCCCCCCCCC(=O)O[C@H](CC(=O)[O-])C[N+](C)(C)C` [Decanoylcamitine, decanoylcarnitine], the “Effects of Tight Junction Disrupting Compounds on Cationic Amphiphile: DNA Complex Binding” value (“Effects … DNA Complex Binding” below) in the data set on polarized NHBE cells [1] is on record as “Mildly Effective”.

As to `O=C(O)CN(CCN(CC(=O)O)CC(=O)O)CC(=O)O` [EDTA, Ethylenediaminetetraacetic acid], in the data set on CF patients (0.2 g in 10 ml injected, or 0.6 g in 300 ml nebulized over 24 h, via tracheostomy once per day for 3 days), the toxic side-effects result is given as “No toxic side-effects were noted”. The adverse effects result with CF patients (children with CF, aerosol of 0.05M 3 times/day for 2 weeks) is recorded as “no adverse effects”. Besides, the tolerability entry with CF patients (children with CF, aerosol of 0.1 M 3 times/day for 2 weeks) is given as “Three out of ten could not tolerate”. For the same compound, in the data set on CF patients (same phase I trial), the respiratory function entry is listed as “remained unchanged”; the “serum calcium and magnesium levels” value is on record as “remained normal”. Besides, the “Effects … DNA Complex Binding” value in the data set on polarized NHBE cells [1] is “Very Effective”.

On to `CCCCCCCCCC(=O)[O-].[Na+]` [Sodium Caprate, sodium caprate], for which the “Effects … DNA Complex Binding” value in the data set with polarized NHBE cells [1] is reported as “Mildly Effective”.

For the compound `C[C@H](CCC(=O)NCC(=O)[O-])[C@H]1CC[C@H]2[C@@H]3[C@H](O)C[C@@H]4C[C@H](O)CC[C@]4(C)[C@H]3C[C@H](O)[C@]12C.[Na+]` [Sodium glycocholate, sodium glycocholate], the “Effects … DNA Complex Binding” value in the data set with polarized NHBE cells [1] is “Mildly Effective”.

Consider `C[C@@]1(CO)[C@H](O)CC[C@@]2(C)[C@H]1CC[C@H]1C[C@@H]3C[C@@]12CC[C@]3(O)CO` [aphidicolin], for which, in the data set on NHBE cells (setting [4]), the “inhibition of proliferation of NHBE cells” value is reported as “sufficient to inhibit proliferation” and the toxicity entry is given as “minimal toxicity”. Further, in the data set on NHBE cells (NHBE cells grown on plastic, presence of aphidicolin), the “[methyl-3H]-thymidine incorporation” value is 6,600±600 cpm/μg DNA. Besides, the “effect on gene expression from polarized NHBE cells” value in the data set on polarized NHBE cells [2] is reported as “no effect on gene expression”.

Consider `OC[C@@H](O)[C@@H](O)[C@H](O)[C@H](O)CO` [mannitol], for which the “X-gal staining in the trachea” value in the data set on mouse trachea (20% pre-treatment, compared with AdV alone, FIG. 4) is recorded as “not different”. For the same compound, the “enhancement in gene transfer” value with mouse trachea (pre-treating with hyperosmotic solution, FIGS. 4 & 5A) is given as “No comparible enhancements”.

As to polidocanol, in the data set on mouse nose, the “AdV-mediated gene expression in respiratory epithelial cells” value was “enhanced AdV-mediated gene expression”.

On to “polyethylene glycol 5000-dimyristoylphosphatidylethanolamine [DMPE-PEG5000]”, for which, in data set [3], the “pDNA concentration at which cationic lipid:pDNA complexes could be stabilized” value is “exceeding 20 mM”.
